We go through 27 compounds from patent US9682954B2, “Phenanthridine derivatives, preparation methods and uses thereof” (Kunming Institute of Botany, The Chinese Academy of Sciences, priority 2013, dated 2017).

Like-named read-outs stand apart in the source and are kept apart here.

One data set deals with Wnt signaling pathway. The data set is described as follows: Activity assay of the reporter gene (Wnt signaling pathway activation, Wnt3a conditioned medium). In kind it is cell-based. To be noted: for activation of the reporter gene systems of classical Wnt signaling pathway: in the way of depending on Wnt3a receptors; for Concentration of compounds for doubly synergetic activating Wnt reporter gene: with Wnt3a conditioned medium. The method, then:
After 6 hours, the cells are collected and activities of the report genes are determined.
Activity Assay of the Reporter Gene
HEK293T, HCT116, SW480 or NIH3T3 cells used for activity assay of the reporter gene were inoculated into 24-wells plates respectively 24 hours before transfection then transfected following the above mentioned reference method. The amount of the plasmids used for Transfection was: 20 ng of TOPFlash, NFAT-Luc, or SRF-Luc, and 25 ng of EGFP-C1 (HEK293T); 25 ng of LEF-Luc, 75 ng of LEF1, and 25 ng of EGFP-C1 (NIH3T3); 100 ng of TOPFlash or Fopfllash and 100 ng of EGFP-C1 (HCT116 and SW480). The cells were transfected with other plasmids following experimental requirements, LacZs were added to meet a total content of 250 ng (in RNAi and plasmid co-transfection experiments, 1 μl of siRNA was added when every 100 ng/well of the plasmid was transfected). Wnt3a conditioned medium was added 18 hours after transfection to stimulate the cells for 6-8 hours, the cells were lysed using Boehringer Mannheim Luci-ferase Assay Kit (200 μl/well). Intensity of GFP proteins in cell lysates were determined as internal standards of expression quantity of the cells using fluorescence meter FL600 (BIO-TEK Inc. Winooski, Vt.), and then 20 μl of luciferase substrates were added. Luciferase activity was determined with Micro Lumate Plus (Perkin Elmer Inc. Wellesley, Mass.) luminometer. Finally, the luciferase activity was homogenized using activity of GFP.
(In a reporter assay the amount or activity of a reporter protein is the signal.)

A short description of a further data set: in vitro. As to conditions: human. As to the method:
(§1) (1) Toxicity Experiment of the Compound on Huh7.5:
(§2) 100 μL of Huh7.5 cells (1×10^5/ml) was inoculated in 96-wells plates and incubated in an incubator at 37° C. under 5% of CO2 and saturated humidity for 24 hrs. Then different concentration of the compound of the present invention and positive control (VX-950, telaprevir) were added respectively and incubated for a further 72 hrs. 10 μL of MTT (5 mg/mL) was added per well and incubated for another 4 hrs. After the cells were lysed with DMSO, OD570-630 […] was determined on ELIASA. In comparison with OD of the control group, inhibitory rate of each concentration on cell toxicity was calculated, and half toxic concentration of the compound was calculated with Reed-Muench method.

The test system of the next data set is HCV. Briefly: microbe, parasite or virus in culture. The class given is cell-based, Hepatitis C Virus (HCV). To be noted: Huh7.5 cells infected with HCV, intracellular HCV RNA by qRT-PCR, Reed-Muench method. The method, then: (2) Anti-HCV Activity of the Compound in Cells:
The total RNA was extracted from the cells. The intracellular content of HCV and RNA of internal control gene GAPDH were determined by real-time fluorescence qRT-PCR.
For orientation: Real-time PCR tracks product formation cycle by cycle.

For the next data set, the system named is Huh7.5 cells. Briefly: in vitro. As to the method:
as §1, §2

Setting [1] is: Hepatitis C virus, Huh7.5, 72 h.

Regarding `CCc1cccc2c1N(C)Cc1cc3c(cc1-2)OCO3` [Compound 9, 4-ethyl-5-methyl-5,6-dihydro-[1,3]dioxolo[4,5-j]phenanthridine], in the data set with Wnt signaling pathway, the “activation of the reporter gene systems of classical Wnt signaling pathway” value (shortened to “activation”) is listed as “activate the reporter gene systems of classical Wnt signaling pathway” and the “Concentration of compounds for doubly synergetic activating Wnt reporter gene” value (“Concentration of compounds” below) is 3.75 µM.
In turn, `CCc1cccc2c1N(C)Cc1cc(O)c(O)cc1-2` [Compound 10, 4-ethyl-5-methyl-5,6-dihydro-phenanthridine-8,9-diol] showed a CC50 at 72 h in “in vitro” of 61.3 ± 8.4 µM. Further, the EC50 (in general, the concentration that produces a half-maximal response) with HCV (setting [1]) was above 11.1 µM.
On the same counts, the results for `CCc1cccc2c1N(C)Cc1cc(OC)c(OC)cc1-2` [Compound 10a, 4-ethyl-5-methyl-8,9-dimethoxy-5,6-dihydro-phenanthridine] are above 100 µM and below 0.41 µM.
In the data set with Huh7.5 cells, `CCOc1cc2c(cc1OCC)-c1cccc(CC)c1N(C)C2` [Compound 10b, 4-ethyl-5-methyl-8,9-diethyoxy-5,6-dihydro-phenanthridine] had a CC50 above 100 µM. For the same compound, the EC50 in the data set on HCV (72 hrs, read-out: EC50) is 1.63 ± 1.22 µM.
Take `C=CCOc1cc2c(cc1OCC=C)-c1cccc(CC)c1N(C)C2` [Compound 10c, 4-ethyl-5-methyl-8,9-diallyloxy-5,6-dihydro-phenanthridine]: in the data set “in vitro”, the CC50 at 72 h was above 100 µM. The compound further returned an EC50 with HCV (setting [1]) of 16.3 ± 10.1 µM.
On the same counts, the results for `C#CCOc1cc2c(cc1OCC#C)-c1cccc(CC)c1N(C)C2` [Compound 10d, 4-ethyl-5-methyl-8,9-diprop-2-ynyloxy-5,6-dihydro-phenanthridine] are 58.3 ± 2.1 µM and 0.83 ± 0.35 µM.
The like results for `CCc1cccc2c1N(C)Cc1cc(OCC3CCC3)c(OCC3CCC3)cc1-2` [Compound 10e, 4-ethyl-5-methyl-8,9-bis-cyclobutylmethoxy-5,6-dihydro-phenanthridine] were, in that order, above 100 µM and 9.5 ± 2.71 µM.
In the case of `CCc1cccc2c1N(C)Cc1cc(OCC3CCCCC3)c(OCC3CCCCC3)cc1-2` [Compound 10f, 4-ethyl-5-methyl-8,9-bis-cyclohexylmethoxy-5,6-dihydro-phenanthridine], in the data set “in vitro”, the CC50 at 72 h is above 100 µM. The EC50 with HCV (setting [1]) worked out at 10.8 ± 2.86 µM.
On the same counts, the results for `CCc1cccc2c1N(C)Cc1cc(OCc3ccccc3)c(OCc3ccccc3)cc1-2` [Compound 10g, 4-ethyl-5-methyl-8,9-dibenzyloxy-5,6-dihydro-phenanthridine] are 30.2 ± 0.6 µM and 1.25 ± 0.56 µM.
`CCc1cccc2c1N(C)Cc1cc(OC(C)=O)c(OC(C)=O)cc1-2` [Compound 10j, 4-ethyl-5-methyl-8,9-diacetoxy-5,6-dihydro-phenanthridine]: the CC50 at 72 h in “in vitro” came out at 90.1 ± 7.4 µM. In addition, in the data set on HCV (setting [1]), the EC50 came out at 0.23 ± 0.08 µM.
The like results for `CCc1cccc2c1N(C)Cc1cc(OC(=O)C(C)C)c(OC(=O)C(C)C)cc1-2` [Compound 10l, 4-ethyl-5-methyl-8,9-diisobutyryloxy-5,6-dihydro-phenanthridine] were, in that order, above 100 µM and 13.9 ± 11.4 µM.
As for `CCc1cccc2c1N(C)Cc1cc(OC(=O)CC(C)C)c(OC(=O)CC(C)C)cc1-2` [Compound 10n, 4-ethyl-5-methyl-8,9-diisovaleroxy-5,6-dihydro-phenanthridine], the CC50 at 72 h in the data set “in vitro” was 50.3 ± 1 µM. Besides, in the data set with HCV (setting [1]), a half-maximal effect (EC50) was put at 1.43 ± 0.45 µM.
In “in vitro”, `CCc1cccc2c1N(C)Cc1cc(OC(=O)c3ccccc3)c(OC(=O)c3ccccc3)cc1-2` [Compound 10o, 4-ethyl-5-methyl-8,9-dibenzoyloxy-5,6-dihydro-phenanthridine] had a CC50 at 72 h of 91.5 ± 4.19 µM. The EC50 with HCV (setting [1]) is 11 ± 2.23 µM.
As for `CCc1cccc2c1N(C)Cc1cc(OCc3cn(CCNC(C)=O)nn3)c(OCc3cn(CCNC(C)=O)nn3)cc1-2` [Compound 10r, 4-ethyl-5-methyl-8,9-bis[1-(2-acetylamino-ethyl)-1H-[1,2,3]triazol-4-ylmethoxy]-5,6-dihydro-phenanthridine], in the data set on Wnt signaling pathway, the “activation” value was “activate the reporter gene systems of classical Wnt signaling pathway” and the “Concentration of compounds” value came out at 1.25 µM.
In “in vitro”, `C=Cc1cccc2c1N(C)Cc1cc(O)c(O)cc1-2` [Compound 11, 4-ethenyl-5-methyl-5,6-dihydrophenanthridine-8,9-diol] gave a CC50 at 72 h above 100 µM. In the data set on HCV (setting [1]), this compound returned an EC50 of 8.37 ± 2.39 µM.
The like results for `C=CCOc1cc2c(cc1OCC=C)-c1cccc(C=C)c1N(C)C2` [Compound 11a, 4-ethenyl-5-methyl-8,9-diallyloxy-5,6-dihydro-phenanthridine] were, in that order, above 100 µM and 28.8 ± 5.38 µM.
With `C#CCOc1cc2c(cc1OCC#C)-c1cccc(C=C)c1N(C)C2` [Compound 11b, 4-ethenyl-5-methyl-8,9-di(prop-2-ynyloxy)-5,6-dihydro-phenanthridine], the CC50 at 72 h in “in vitro” is above 100 µM. Moreover, the concentration giving a half-maximal response (EC50) with HCV (setting [1]) came out at 4.2 ± 1.72 µM.
As for `C=Cc1cccc2c1N(C)Cc1cc(OCC3CCC3)c(OCC3CCC3)cc1-2` [Compound 11c, 4-ethenyl-5-methyl-8,9-bis-cyclobutylmethoxy-5,6-dihydro-phenanthridine], the CC50 at 72 h in the data set “in vitro” is above 100 µM. This compound also showed an EC50 in the data set with HCV (setting [1]) of 11.3 ± 1.66 µM.
On the same counts, the results for `C=Cc1cccc2c1N(C)Cc1cc(OCC3CCCCC3)c(OCC3CCCCC3)cc1-2` [Compound 11d, 4-ethenyl-5-methyl-8,9-bis-cyclohexylmethoxy-5,6-dihydro-phenanthridine] are above 100 µM and above 33.3 µM.
For the compound `C=Cc1cccc2c1N(C)Cc1cc(OCc3ccccc3)c(OCc3ccccc3)cc1-2` [Compound 11e, 4-ethenyl-5-methyl-8,9-dibenzyloxy-5,6-dihydro-phenanthridine], the CC50 at 72 h in the data set “in vitro” is above 100 µM. In the data set with HCV (setting [1]), this compound gave an EC50 of 13.4 ± 0.98 µM.
On the same counts, the results for `C=Cc1cccc2c1N(C)Cc1cc(OC(C)=O)c(OC(C)=O)cc1-2` [Compound 11h, 4-ethenyl-5-methyl-8,9-diacetoxy-5,6-dihydro-phenanthridine] are above 100 µM and 1.63 ± 0.91 µM.
In the data set “in vitro”, `C=Cc1cccc2c1N(C)Cc1cc(OC(=O)CC)c(OC(=O)CC)cc1-2` [Compound 11i, 4-ethenyl-5-methyl-8,9-dipropionyloxy-5,6-dihydro-phenanthridine] gave a CC50 at 72 h above 100 µM. The compound also gave an EC50 in the data set on HCV (setting [1]) of 1.02 ± 0.16 µM.
On the same counts, the results for `C=Cc1cccc2c1N(C)Cc1cc(OC(=O)C(C)C)c(OC(=O)C(C)C)cc1-2` [Compound 11j, 4-ethenyl-5-methyl-8,9-diisobutyryloxy-5,6-dihydro-phenanthridine] are above 100 µM and 1.83 ± 0.17 µM.
As to `C=Cc1cccc2c1N(C)Cc1cc(OC(=O)CC(C)C)c(OC(=O)CC(C)C)cc1-2` [Compound 11l, 4-ethenyl-5-methyl-8,9-diisovaleroxy-5,6-dihydro-phenanthridine], the CC50 at 72 h in the data set “in vitro” was above 100 µM. Moreover, it took 3.27 ± 1.26 µM to reach a half-maximal effect with HCV (setting [1]) (EC50).
On the same counts, the results for `C=Cc1cccc2c1N(C)Cc1cc(OC(=O)c3ccccc3)c(OC(=O)c3ccccc3)cc1-2` [Compound 11m, 4-ethenyl-5-methyl-8,9-dibenzoyloxy-5,6-dihydro-phenanthridine] are above 100 µM and 1.03 ± 0.07 µM.
Turning to `C=Cc1cccc2c1N(C)Cc1cc(OCc3cn(CCN)nn3)c(OCc3cn(CCN)nn3)cc1-2` [Compound 11q, 4-ethenyl-5-methyl-8,9-bis[1-(2-amino-ethyl)-1H-[1,2,3]triazol-4-ylmethoxy]-5,6-dihydrophenanthridine], in the data set with Wnt signaling pathway, the “activation” value is “activate the reporter gene systems of classical Wnt signaling pathway” and the “Concentration of compounds” value came to 2.5 µM.
On the same counts, the results for `C=Cc1cccc2c1N(C)Cc1cc(OCc3cn(CCNC(C)=O)nn3)c(OCc3cn(CCNC(C)=O)nn3)cc1-2` [Compound 11r, 4-ethenyl-5-methyl-8,9-bis[1-(2-acetylamino-ethyl)-1H-[1,2,3]triazol-4-ylmethoxy]-5,6-dihydro-phenanthridine] are “activate the reporter gene systems of classical Wnt signaling pathway” and 5 µM.
